US11447494B2, “Tricyclic amine compounds as CDK2 inhibitors” (Incyte Corporation, priority 2019, dated 2022)

Experiments:
[1] = tested on: CCNE1 amplified COV318 cells; test: Cell cycle analysis by FACS in COV318 cells after p16 or control siRNA; assay type: cell-based, human; details: 100 nM, 16 hours
Protocol: To confirm the role of p16 in CDK2-sensitivity of CCNE-amplified cells, COV318 cells were treated with control or p16-specific siRNA.
(§1) Bulk DNA was stained with DAPI. Compound-treated and DMSO treated control cells were acquired with CytoFlex (Beckman Coulter) and were analyzed using the FlowJo software. For cell cycle analysis of cells with siRNA knockdown, 72 hours after siRNA transfection, cells exposed to […] for 3 hours before detection of Click-iT Alexa Fluor® 647 azide kit.

[2] = biological target: CDK2/Cyclin E1 (Homo sapiens (Human), UniProt P24941); test: CDK2/Cyclin E1 HTRF enzyme activity assay; assay type: biochemical; details: 1 mM ATP
Protocol: CDK2/Cyclin E1 enzyme activity assays utilize full-length human CDK2 co-expressed as N-terminal GST-tagged protein with FLAG-Cyclin E1 in a baculovirus expression system (Carna Product Number 04-165). Assays are conducted in white 384-well polystyrene plates in a final reaction volume of 8 μL. CDK2/Cyclin E1 (0.25 nM) is incubated with compounds (40 nL serially diluted in DMSO) in the presence of ATP (50 μM or 1 mM) and 50 nM ULight™-labeled eIF4E-binding protein 1 (THR37/46) peptide (PerkinElmer) in assay buffer (containing 50 mM HEPES pH 7.5, 1 mM EGTA, 10 mM MgCl2, 2 mM DTT, 0.05 mg/mL BSA, and 0.01% Tween 20) for 60 minutes at room temperature. The reactions are stopped by the addition of EDTA and Europium-labeled anti-phospho-4E-BP1 antibody (PerkinElmer), for a final concentration of 15 mM and 1.5 nM, respectively. HTRF signals are read after 1 hour at room temperature on a PHERAstar FS plate reader (BMG Labtech). Data is analyzed with IDBS XLFit and GraphPad Prism 5.0 software using a three or four parameter dose response curve to determine IC50 for each compound.

[3] = tested on: CCNE1-non-amplified cell lines (COV504, OV56, Igrov1); test: Cell cycle analysis by FACS in CCNE1-non-amplified cell lines; assay type: cell-based, human
Protocol: (§2) The effect of CDK4/6-inhibition in CCNE1-amplified versus CCNE1-non-amplified cell lines was evaluated.
(§3) A similar experiment was performed in a larger set of CCNE1-amplified cell lines (COV318 and OVCAR3) and CCNE1-non-amplified cell lines (COV504, OV56, and Igrov1) (FIG. 6).
as §1

[4] = tested on: Rb phosphorylation at S780 in CCNE1-non-amplified cell lines (COV504 and OV56); test: Western blot of Rb phosphorylation at S780 in CCNE1-non-amplified cell lines; assay type: cell-based, human; details: 1 or 15 hours, various doses
Protocol: The effect of CDK4/6-inhibition on Rb phosphorylation at S780 in CCNE1-amplified versus CCNE1-non-amplified cell lines was evaluated. […] One or 15 hours after treatment, the cells were harvested and total protein was extracted and analyzed by western blot (FIG. 8).
Whole cell extracts were prepared using RIPA buffer (Thermo Scientific, 89900) with a Halt Protease and Phosphatase Inhibitor Cocktail (Thermo Scientific, 78440). Protein concentration was quantified with a BCA Protein Assay Kit (Thermo Scientific, 23225) and […] of protein lysates were loaded for SDS-PAGE using precast gradient gels (Bio-Rad, Hercules, No. 456-1094). Samples were diluted in 5× Laemmli buffer (300 mM Tris-HCl pH 6.8, 10% SDS (w/v), 5% 2-mercaptoethanol, 25% glycerol (v/v), 0.1% bromophenol blue w/v) and boiled for 5 minutes. […] of proteins were separated by 8-15% SDS-PAGE and transferred onto polyvinylidene fluoride (PVDF) membranes. Unspecific binding sites on the PVDF membranes were blocked with 5% non-fat milk in TBST (20 mM Tris-HCl, pH 7.6, 137 mM NaCl, 1% Tween-20). […] Images were captured by Luminescence/Fluorescence Imaging System Odyssey CLx Imager (LI-COR).

[5] = tested on: CCNE1-amplified cell lines (COV318, OVCAR3); test: Cell cycle analysis by FACS in CCNE1-amplified cell lines; assay type: cell-based, human
Protocol: as §2, §3, §1

Row | SMILES | IC50 [2] [nM] | other results
1 | C[C@@]1(O)CCC[C@H]1n1c(=O)ccc2cnc(NC3CCN(S(C)(=O)=O)CC3)nc21 [Compound A, 8-((1R,2R)-2-hydroxy-2-methylcyclopentyl)-2-((1-(methylsulfonyl)piperidin-4-yl)amino)pyrido[2,3-d]pyrimidin-7(8H)-one] | – | percentage of S phase cells ([1]; control siRNA-treated cells): significantly decreased; percentage of S phase cells ([1]; p16 knocked down cells, vs DMSO): not significantly decreased
2 | Cc1nc2c(n1C)-c1nc(Nc3ccc(S(=O)(=O)NC(C)C)cc3)ncc1CC2 [Example 6, 4-((1,2-Dimethyl-4,5-dihydro-1H-imidazo[4,5-h]quinazolin-8-yl)amino)-N-isopropylbenzenesulfonamide] | ≤ 50 | –
3 | Cc1nc2c(n1C)-c1nc(Nc3ccc(S(=O)(=O)NCCO)cc3)ncc1CC2 [Example 7, 4-((1,2-Dimethyl-4,5-dihydro-1H-imidazo[4,5-h]quinazolin-8-yl)amino)-N-(2-hydroxyethyl)benzenesulfonamide] | ≤ 50 | –
4 | NS(=O)(=O)c1ccc(Nc2ncc3c(n2)-n2ccnc2CC3)cc1 [Example 8, 4-((5,6-Dihydroimidazo[1′,2′:1,6]pyrido[2,3-d]pyrimidin-2-yl)amino)benzenesulfonamide] | ≤ 50 | –
5 | NS(=O)(=O)c1ccc(Nc2ncc3c(n2)-n2ccnc2CO3)cc1 [Example 9, 4-((6H-Imidazo[1,2-d]pyrimido[5,4-b][1,4]oxazin-2-yl)amino)benzenesulfonamide] | ≤ 50 | –
6 | Cc1nc2c(n1C)-c1nc(Nc3ccc(S(=O)(=O)NCCN(C)C)cc3F)ncc1CC2 [Example 10, 4-((1,2-Dimethyl-4,5-dihydro-1H-imidazo[4,5-h]quinazolin-8-yl)amino)-N-(2-(dimethylamino)ethyl)-3-fluorobenzenesulfonamide] | ≤ 50 | –
7 | Cc1nc2c(n1C)-c1nc(Nc3ccc(S(=O)(=O)NCCCN(C)C)cc3F)ncc1CC2 [Example 11, 4-((1,2-Dimethyl-4,5-dihydro-1H-imidazo[4,5-h]quinazolin-8-yl)amino)-N-(3-(dimethylamino)propyl)-3-fluorobenzenesulfonamide] | ≤ 50 | –
8 | Cc1nc2c(n1C)-c1nc(Nc3ccc(S(=O)(=O)NCC4CCOC4)cc3F)ncc1CC2 (stereo not shown) [Example 12, 4-((1,2-Dimethyl-4,5-dihydro-1H-imidazo[4,5-h]quinazolin-8-yl)amino)-3-fluoro-N-((tetrahydrofuran-3-yl)methyl)benzenesulfonamide] | ≤ 50 | –
9 | CC(=O)c1c(C)c2cnc(Nc3ccc(N4CCNCC4)cn3)nc2n(C2CCCC2)c1=O [palbociclib] | – | percentage of cells at the S phase, compared to DMSO ([3]; COV504, OV56, Igrov1, 16 hours after treatment): decreased in CCNE1-non-amplified cell lines in a dose-dependent fashion; inhibition of proliferation (cell cycle analysis) ([3]; COV504 cells, 16 hours, increasing concentrations): dose-dependent inhibition of the proliferation; Rb phosphorylation at S780 [4]: blocked Rb phosphorylation at S780; percentage of cells at the S phase, compared to DMSO ([5]; COV318 and OVCAR3, 16 hours after treatment): not significantly different; inhibition of proliferation (cell cycle analysis) ([5]; OVCAR3 cells, 16 hours, increasing concentrations): not in CCNE1-amplified cells

More lines, main results first:

Row | IC50 [2] [nM] | SMILES | other results
10 | ≤ 50 | CNS(=O)(=O)c1ccc(Nc2ncc3c(n2)-c2c(nc(C)n2C(C)C)CC3)cc1 [Example 1, 4-((1-Isopropyl-2-methyl-4,5-dihydro-1H-imidazo[4,5-h]quinazolin-8-yl)amino)-N-methylbenzenesulfonamide] | –
11 | ≤ 50 | Cc1nc2c(n1C)-c1nc(Nc3ccc(S(=O)(=O)N(C)C)cc3)ncc1CC2 [Example 2, 4-((1,2-Dimethyl-4,5-dihydro-1H-imidazo[4,5-h]quinazolin-8-yl)amino)-N,N-dimethylbenzenesulfonamide] | –
12 | ≤ 50 | Cc1nc2c(n1C)-c1nc(Nc3ccc(S(C)(=O)=O)cc3)ncc1CC2 [Example 3, 1,2-Dimethyl-N-(4-(methylsulfonyl)phenyl)-4,5-dihydro-1H-imidazo[4,5-h]quinazolin-8-amine] | –
13 | ≤ 50 | CNS(=O)(=O)c1ccc(Nc2ncc3c(n2)-c2c(nc(C)n2C)CC3)cc1 [Example 4, 4-((1,2-Dimethyl-4,5-dihydro-1H-imidazo[4,5-h]quinazolin-8-yl)amino)-N-methylbenzenesulfonamide] | –
14 | ≤ 50 | CNS(=O)(=O)c1ccc(Nc2ncc3c(n2)-c2c(nc(C)n2C)CC3)c(F)c1 [Example 5, 4-((1,2-Dimethyl-4,5-dihydro-1H-imidazo[4,5-h]quinazolin-8-yl)amino)-3-fluoro-N-methylbenzenesulfonamide] | –
